Source: patent US9999616B2 (ZENITH EPIGENETICS LTD., priority 2013, dated 2018)

Experiments:
[1] = system: c-myc in Human AML MV4-11 cells; assay: Inhibition of cMYC expression (mRNA, real-time PCR) in MV4-11 cells; assay type: cell-based; details: 3 h treatment, cMYC mRNA by real-time PCR
How it was run: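 MV4-11 cells in IMDM with 10% FBS were treated with increasing compound concentrations (DMSO 0.1%) for 3 h at 37 °C, in triplicate. Isolated mRNA was quantified by one-step TaqMan RT-qPCR, cMYC Ct normalized to cyclophilin, and fold expression given relative to DMSO control.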

Human AML MV-4-11 cells = assay: Inhibition of cell proliferation in MV4-11 cells (CellTiter Aqueous One); assay type: cell-based; details: MV4-11, 72 h
How it was run: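 MV4-11 cells, 5×10^4 per well in IMDM with 10% FBS, were exposed to increasing compound concentrations or 0.1% DMSO for 72 h at 37 °C in triplicate. Viability was read by MTS (CellTiter Aqueous One) absorbance at 490 nm after 3-4 h. IC50 was derived from background-corrected signal relative to DMSO.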

hIL-6 mRNA = assay: Inhibition of hIL-6 mRNA transcription in LPS-stimulated U937 macrophages; assay type: cell-based, Human; details: 1 h pretreatment, LPS 3 h; for IC50: Homo sapiens, U-937, PMA-differentiated U937 cells, read-out: IL-6 activity
Procedure: Human leukemic monocyte lymphoma U937 cells (CRL-1593.2) were plated at a density of 3.2×10^4 cells per well in a 96-well plate in 100 μL RPMI-1640 containing 10% FBS and penicillin/streptomycin, and differentiated into macrophages for 3 days in 60 ng/mL PMA ([…]) at 37° C. in 5% CO2 prior to the addition of compound. The cells were pretreated for 1 h with increasing concentrations of test compound in 0.1% DMSO prior to stimulation with 1 ug/mL lipopolysaccharide from Escherichia coli. Triplicate wells were used for each concentration. The cells were incubated at 37° C., 5% CO2 for 3 h before the cells were harvested. At time of harvest, media was removed and cells were rinsed in 200 μL PBS. Cells were harvested using the mRNA Catcher PLUS kit according to manufacturer's instructions. The eluted mRNA was then used in a one-step quantitative real-time PCR reaction using components of the RNA UltraSense™ One-Step Kit (Life Technologies) together with Applied Biosystems TaqMan® primer-probes for hIL-6 and Cyclophilin. Real-time PCR plates were run on a ViiA™7 real time PCR machine (Applied Biosystems), data was analyzed, normalizing the Ct values for hlL-6 to an internal control, prior to determining the fold expression of each sample, relative to the control.

[2] = molecular target: Brd4 bromodomain 1 (BRD4(1)) (Homo sapiens, UniProt O60885); assay: Inhibition of tetra-acetylated histone H4 binding to Brd4 bromodomain 1, measured by FRET (HTRF); design: made in house; host or cells: E. coli BL21(DE3); details: 2 h at room temperature
How it was run: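 N-terminally His-tagged bromodomain (200 nM), expressed in E. coli and purified by Ni affinity and size exclusion, was incubated with biotinylated tetra-acetylated H4 peptide (25-50 nM), Eu-cryptate streptavidin and XL665 anti-His in HEPES pH 7.4 buffer with 0.2% DMSO. Reactions ran 2 h at room temperature. IC50 came from the 665/620 nm fluorescence decrease.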

Row | Compound | IC50 [1] | IC50 (Human AML MV-4-11 cells) | IC50 (hIL-6 mRNA) | IC50 [2] | IL-6 activity (hIL-6 mRNA; PMA-differentiated U937 cells)
1 | Cc1noc(C)c1-c1cc(-c2c(C)noc2C)c2c(cnn2C)c1 [Example Compound 54, 4,4′-(1-methyl-1H-indazole-5,7-diyl)bis(3,5-dimethylisoxazole)] | 0.3 to 3 µM | ≤ 0.3 µM | 0.3 to 3 µM | ≤ 0.3 µM | –
2 | Cc1noc(C)c1-c1cc(-c2c(C)noc2C)c2nn(C)cc2c1 [Example Compound 55, 4,4′-(2-methyl-2H-indazole-5,7-diyl)bis(3,5-dimethylisoxazole)] | 0.3 to 3 µM | 0.3 to 3 µM | 0.3 to 3 µM | ≤ 0.3 µM | –
3 | CC(=O)Nc1ccccc1-c1cc(-c2c(C)noc2C)cc2[nH]c(C)nc12 [Example Compound 64, N-(2-(6-(3,5-dimethyl-isoxazol-4-yl)-2-methyl-1H-benzo[d]imidazol-4-yl)phenyl) acetamide] | 0.3 to 3 µM | 0.3 to 3 µM | ≤ 0.3 µM | ≤ 0.3 µM | –
4 | CNC(=O)c1onc(C)c1-c1cc(-c2c(C)noc2C)cc2[nH]c(C)nc12 [Example Compound 67, 4-(5-(3,5-dimethyl-isoxazol-4-yl)-2-methyl-1H-benzo[d]imidazol-7-yl)-N,3-dimethyl isoxazole-5-carboxamide] | 0.3 to 3 µM | 3 to 30 µM | – | ≤ 0.3 µM | Not active
5 | Cc1nc2c(-c3ccccc3S(C)(=O)=O)cc(-c3c(C)noc3C)cc2[nH]1 [Example Compound 69, 3,5-dimethyl-4-(2-methyl-4-(2-(methyl-sulfonyl)phenyl)-1H-benzo[d]imidazol-6-yl)isoxazole] | 0.3 to 3 µM | 0.3 to 3 µM | 0.3 to 3 µM | ≤ 0.3 µM | –
6 | COc1ccncc1-c1cc(-c2c(C)noc2C)cc2[nH]c(C)nc12 [Example Compound 72, 4-(4-(4-methoxy-pyridin-3-yl)-2-methyl-1H-benzo[d]imidazol-6-yl)-3,5-dimethyl isoxazole] | 0.3 to 3 µM | 0.3 to 3 µM | 0.3 to 3 µM | ≤ 0.3 µM | –
7 | Cc1nc2c(-c3cc(C(N)=O)ccc3C)cc(-c3c(C)noc3C)cc2[nH]1 [Example Compound 74, 3-(6-(3,5-dimethyl-isoxazol-4-yl)-2-methyl-1H-benzo[d]imidazol-4-yl)-4-methyl benzamide] | 0.3 to 3 µM | 0.3 to 3 µM | 0.3 to 3 µM | ≤ 0.3 µM | –
8 | Cc1noc(C)c1-c1cc(-c2c(C)noc2C)c2[nH]c(CC(F)(F)F)nc2c1 [Example Compound 76, 4,4′-(2-(2,2,2-trifluoro-ethyl)-1H-benzo[d]imidazole-5,7-diyl)bis(3,5-dimethylisoxazole)] | 0.3 to 3 µM | 0.3 to 3 µM | 0.3 to 3 µM | ≤ 0.3 µM | –
9 | Cc1nc2c(-c3ccccc3OC(F)(F)F)cc(-c3c(C)noc3C)cc2[nH]1 [Example Compound 77, 3,5-dimethyl-4-(2-methyl-4-(2-(trifluoro-methoxy)phenyl)-1H-benzo[d]imidazol-6-yl)isoxazole] | ≤ 0.3 µM | 0.3 to 3 µM | 0.3 to 3 µM | ≤ 0.3 µM | –
10 | Cc1nc2c(-c3cccnc3)cc(-c3c(C)noc3C)cc2[nH]1 [Example Compound 79, 3,5-dimethyl-4-(2-methyl-4-(pyridin-3-yl)-1H-benzo[d]imidazol-6-yl)isoxazole] | ≤ 0.3 µM | 0.3 to 3 µM | 0.3 to 3 µM | ≤ 0.3 µM | –
11 | Cc1nc2c(-c3cc(F)ccc3C(F)(F)F)cc(-c3c(C)noc3C)cc2[nH]1 [Example Compound 80, 4-(4-(5-fluoro-2-(trifluoro-methyl)phenyl)-2-methyl-1H-benzo[d]imidazol-6-yl)-3,5-dimethyl isoxazole] | ≤ 0.3 µM | 0.3 to 3 µM | 0.3 to 3 µM | ≤ 0.3 µM | –
12 | Cc1nc2c(-c3ncccc3C)cc(-c3c(C)noc3C)cc2[nH]1 [Example Compound 84, 3,5-dimethyl-4-(2-methyl-4-(3-methyl-pyridin-2-yl)-1H-benzo[d]imidazol-6 yl)isoxazole] | 0.3 to 3 µM | 3 to 30 µM | 0.3 to 3 µM | 0.3 to 3 µM | –
13 | Cc1nc2c(-c3cnccn3)cc(-c3c(C)noc3C)cc2[nH]1 [Example Compound 85, 3,5-dimethyl-4-(2-methyl-4-(pyrazin-2-yl)-1H-benzo[d]imidazol-6-yl)isoxazole] | 3 to 30 µM | 3 to 30 µM | 0.3 to 3 µM | ≤ 0.3 µM | –

Continued, in another order:

Row | IC50 [1] | IC50 (Human AML MV-4-11 cells) | IC50 (hIL-6 mRNA) | IC50 [2] | Compound | IL-6 activity (hIL-6 mRNA; PMA-differentiated U937 cells)
14 | 0.3 to 3 µM | 0.3 to 3 µM | 0.3 to 3 µM | ≤ 0.3 µM | Cc1noc(C)c1-c1cc(-c2c(C)noc2C)c2cn[nH]c2c1 [Example Compound 87, 4,4′-(1H-indazole-4,6-diyl)bis(3,5-dimethylisoxazole)] | –
15 | 0.3 to 3 µM | 0.3 to 3 µM | 0.3 to 3 µM | ≤ 0.3 µM | Cc1nc2c(-c3ccccc3)cc(-c3c(C)noc3C)cc2[nH]1 [Example Compound 88, 3,5-dimethyl-4-(2-methyl-4-phenyl-1H-benzo[d]imidazol 6-yl)isoxazole] | –
16 | ≤ 0.3 µM | 0.3 to 3 µM | 0.3 to 3 µM | ≤ 0.3 µM | Cc1nc2c(-c3ccccc3C)cc(-c3c(C)noc3C)cc2[nH]1 [Example Compound 89, 3,5-dimethyl-4-(2-methyl-4-(o-tolyl)-1H-benzo[d]imidazol-6-yl)isoxazole] | –
17 | ≤ 0.3 µM | 0.3 to 3 µM | ≤ 0.3 µM | ≤ 0.3 µM | Cc1nc2c(-c3ccccc3F)cc(-c3c(C)noc3C)cc2[nH]1 [Example Compound 91, 4-(4-(2-fluoro-phenyl)-2-methyl-1H-benzo[d]imidazol-6-yl)-3,5-dimethyl isoxazole] | –
18 | ≤ 0.3 µM | 0.3 to 3 µM | ≤ 0.3 µM | ≤ 0.3 µM | Cc1noc(C)c1-c1cc(-c2c(C)noc2C)c2c(c1)ncn2C [Example Compound 93, 4,4′-(1-methyl-1H-benzo[d]imidazole-5,7-diyl)bis(3,5-dimethylisoxazole)] | –
19 | 0.3 to 3 µM | 0.3 to 3 µM | 0.3 to 3 µM | ≤ 0.3 µM | Cc1nc2c(-c3cc(F)ccc3C#N)cc(-c3c(C)noc3C)cc2[nH]1 [Example Compound 94, 2-(6-(3,5-dimethyl-isoxazol-4-yl)-2-methyl-1H-benzo[d]imidazol-4-yl)-4-fluoro-benzonitrile] | –
20 | 0.3 to 3 µM | 0.3 to 3 µM | 0.3 to 3 µM | ≤ 0.3 µM | Cc1nc2c(-c3c(C)ncnc3C)cc(-c3c(C)noc3C)cc2[nH]1 [Example Compound 98, 4-(4-(4,6-dimethyl-pyrimidin-5-yl)-2-methyl-1H-benzo[d]imidazol-6-yl)-3,5-dimethyl isoxazole] | –
21 | ≤ 0.3 µM | ≤ 0.3 µM | ≤ 0.3 µM | ≤ 0.3 µM | Cc1nc2c(-c3c(C)nc(N)nc3C)cc(-c3c(C)noc3C)cc2[nH]1 [Example Compound 99, 5-(6-(3,5-dimethyl-isoxazol-4-yl)-2-methyl-1H-benzo[d]imidazol-4-yl)-4,6-dimethyl pyrimidin-2-amine] | –
22 | 0.3 to 3 µM | 0.3 to 3 µM | ≤ 0.3 µM | ≤ 0.3 µM | Cc1nc2c(-c3scnc3C)cc(-c3c(C)noc3C)cc2[nH]1 [Example Compound 104, 3,5-dimethyl-4-(2-methyl-4-(4-methyl-thiazol-5-yl)-1H-benzo[d]imidazol-6-yl)isoxazole] | –
